“And” between values parts separate entries of the source, which are not always exact repeats. Identical values can stand only once.
Key:
Bacillus cereus = experiment: Agar plate disc-diffusion, antibacterial inhibition zone; format: cell-based; settings: nutrient agar, 37° C., 48 hours
Protocol: (§1) The agar plate disc-diffusion method was applied. Sterilized filter papers (6 mm in diameter) were wetted with 10 μL of a solution of N′-(2-(5-(4-chlorophenyl)-1,3,4-oxadiazol-2-ylthio)acetoxy)benzimidamide (3) to be tested, containing 10 mg/mL in DMSO, and the discs were allowed to air dry. The discs were then placed onto the surface of agar plates (nutrient agar for bacteria and Sabouraud's dextrose agar for fungi) seeded with the test organism. Each plate contained 15 mL of the agar medium, previously seeded with 0.2 mL of the broth culture of each organism pregrown for 18 hours. The plates were incubated at 37° C. for 48 hours and 72 hours for fungi. The inhibition zones were measured in mm. Discs impregnated with DMSO were used as a control, and their inhibition zone was subtracted from the tested compound's actual inhibition zone.

Escherichia coli = experiment: as above; format: cell-based; settings: nutrient agar, 37° C., 48 hours
Protocol: as §1

Pseudomonas aeruginosa = experiment: as above; format: cell-based; settings: nutrient agar, 37° C., 48 hours
Protocol: as §1

Staphylococcus aureus = experiment: as above; format: cell-based; settings: nutrient agar, 37° C., 48 hours
Protocol: as §1

Aspergillus flavus = experiment: Agar plate disc-diffusion, antifungal inhibition zone; format: cell-based; settings: Sabouraud's dextrose agar, 37° C., 72 hours
Protocol: as §1

[1] = system: Chrysosporium keratinophilum; experiment: as above; format: cell-based; settings: Sabouraud's dextrose agar, 37° C., 72 hours
Protocol: as §1

[2] = A = concentration of comp. = 10,000 μL
[3] = B = concentration of comp. = 30,000 μL
[4] = C = concentration of comp. = 50,000 μL
[5] = A = concentration of comp. = 10,000 μg/mL

Row | SMILES | inhibition zone, Bacillus Cereus (Bacillus cereus; [2]) | inhibition zone, Bacillus Cereus (Bacillus cereus; [3]) | inhibition zone, Bacillus Cereus (Bacillus cereus; [4]) | inhibition zone, Escherichia coli (Escherichia coli; [2]) | inhibition zone, Escherichia coli (Escherichia coli; [3]) | inhibition zone, Escherichia coli (Escherichia coli; [4]) | inhibition zone, Pseudomonas aeruginosa (Pseudomonas aeruginosa; [2]) | inhibition zone, Pseudomonas aeruginosa (Pseudomonas aeruginosa; [3]) | inhibition zone, Pseudomonas aeruginosa (Pseudomonas aeruginosa; [4]) | inhibition zone, Staphylococcus aureus (Staphylococcus aureus; [2]) | inhibition zone, Staphylococcus aureus (Staphylococcus aureus; [3]) | inhibition zone, Staphylococcus aureus (Staphylococcus aureus; [4]) | inhibition zone, Aspergillus flavus (Aspergillus flavus; [5]) | inhibition zone, Aspergillus flavus (Aspergillus flavus; [3]) | inhibition zone, Aspergillus flavus (Aspergillus flavus; [4]) | inhibition zone, Chrysosporium keratinophilum [1, 5] | inhibition zone, Chrysosporium keratinophilum [1, 3] | inhibition zone, Chrysosporium keratinophilum [1, 4] | melting point
1 | O=C(O)c1cn(C2CC2)c2cc(N3CCNCC3)c(F)cc2c1=O [Cip., ciprofloxacin, reference compound] | 29 mm | 30 mm | 42 mm | 30 mm | 39 mm | 60 mm | 29 mm | 30 mm | 53 mm | 43 mm | 44 mm | 53 mm | 29 mm | 30 mm | 42 mm | 29 mm | 30 mm | 53 mm | –
2 | N/C(=N\OC(=O)CSc1nnc(-c2ccc(Cl)cc2)o1)c1ccccc1 [Compound 3, N′-(2-(5-(4-chlorophenyl)-1,3,4-oxadiazol-2-ylthio)acetoxy)benzimidamide] | 27 mm | 29 mm | 40 mm | 22 mm | 33 mm | 46 mm | 25 mm | 29 mm | 50 mm | 38 mm | 42 mm | 52 mm | 27 mm | 29 mm | 38 mm | 24 mm | 29 mm | 50 mm | ~ 174 °C and 174 °C

— patent US11919872B1, “N′-(2-(5-(4-chlorophenyl)-1,3,4-oxadiazol-2-ylthio)acetoxy)benzimidamide as an antimicrobial compound” (KING FAISAL UNIVERSITY, priority 2023, dated 2024)
